{
  "source": "patent US10633419B2",
  "about": "“Immunomodulators” (BRISTOL-MYERS SQUIBB COMPANY, priority 2014, dated 2020)",
  "biological_target": "T1, PD-L1 (Homo sapiens, UniProt Q9NZQ7)",
  "T1 construct": "hPDL1(19-239)-TVMV-His; made in house; host or cells: HEK293T",
  "T1 sequence (Q9NZQ7 with tags, fused parts or gaps)": "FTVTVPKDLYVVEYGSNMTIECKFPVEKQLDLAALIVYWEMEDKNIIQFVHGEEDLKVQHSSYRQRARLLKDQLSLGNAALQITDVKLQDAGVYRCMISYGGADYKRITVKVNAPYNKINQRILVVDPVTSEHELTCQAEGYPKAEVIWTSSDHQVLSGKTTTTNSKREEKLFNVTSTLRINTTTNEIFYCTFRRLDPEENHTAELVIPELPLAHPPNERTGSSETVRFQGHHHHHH",
  "assay": "PD-1/PD-L1 Homogenous Time-Resolved Fluorescence (HTRF) binding assay (PD-1-Ig/PD-L1-His)",
  "conditions": "inhibition of PD-1-Ig binding to PD-L1-TVMV-His, read-out: HTRF IC50",
  "outline": "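Inhibitors pre-incubated 15 min with PD-L1-His (10 nM final), then PD-1-Ig (20 nM final) added for 15 min in dPBS/0.1% BSA/0.05% Tween-20. Eu-cryptate anti-Ig (1 nM) and APC anti-His (20 nM) added, 30 min equilibration, 665/620 nm HTRF ratio read.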",
  "note": "Like-named read-outs stand apart in the source and are kept apart here. Starred links: 1 amine or outer side, 2 acyl side, 3 side chain; linkers in the order of their positions; H or OH if unused. Positions of bridges follow the written chain, without caps; N, C: chain ends. Non-standard residues stand in square brackets, D forms with d. Residues, ends and D or L forms follow the SMILES beside them. Groups on a side chain read outwards from the residue. *: point of attachment. Trp(1-CH2COOH) = N[C@@H](Cc1cn(CC(=O)O)c2ccccc12)C(=O)O; X9 = O=C(O)CCCCCCCCCCCCCCCCC(=O)N[C@@H](CCN*)C(=O)O; C18 diacid = O=C(O)CCCCCCCCCCCCCCCCC(=O)*; γGlu = O=C(O)[C@H](CCC(=O)[*:2])N[*:1]; βAsp = O=C(O)[C@H](CC(=O)[*:2])N[*:1]; Palmitoyl = CCCCCCCCCCCCCCCC(=O)*; Hyp = O=C(O)[C@@H]1C[C@@H](O)CN1; NMeNle = CCCC[C@H](NC)C(=O)O; Pip = O=C(O)[C@@H]1CCCCN1; NMeA = CN[C@@H](C)C(=O)O; Pra = C#CC[C@H](N)C(=O)O; Aun = NCCCCCCCCCCC(=O)O; Dab = NCC[C@H](N)C(=O)O; Dap = NC[C@H](N)C(=O)O; GABA = NCCCC(=O)O",
  "data": [
    {"compound": "CCCC[C@H]1C(=O)N(C)[C@@H](CCCC)C(=O)N[C@@H](CC(C)C)C(=O)N[C@H](C(=O)NCC(=O)N[C@@H](CCNC(=O)CC[C@H](NC(=O)CCCCCCCCCCCCCCCCC(=O)O)C(=O)O)C(=O)O)CSCC(=O)N[C@@H](Cc2ccc(O)cc2)C(=O)N2CCCC[C@H]2C(=O)N[C@@H](CC(N)=O)C(=O)N2CCC[C@H]2C(=O)N[C@@H](CN)C(=O)N[C@@H](CC(C)C)C(=O)N2C[C@H](O)C[C@H]2C(=O)N[C@@H](Cc2c[nH]c3ccccc23)C(=O)N[C@@H](CCN)C(=O)N[C@@H](Cc2cn(CC(=O)O)c3ccccc23)C(=O)N1C", "note": "[Example 13149] ({CH2CO}-Y[Pip]NP[Dap]L[Hyp]W[Dab][Trp(1-CH2COOH)][NMeNle][NMeNle]LCG[Dab]([γGlu-C18 diacid])-OH; thioether N-14)", "values": [
      {"measurement": "IC50", "setting": "value given as range class", "value": "10 to 99", "unit": "nM"}
    ]},
    {"compound": "C#CC[C@H](NC(=O)CNC(=O)[C@@H]1CSCC(=O)N[C@@H](Cc2ccc(O)cc2)C(=O)N(C)[C@@H](C)C(=O)N[C@@H](CC(N)=O)C(=O)N2CCC[C@H]2C(=O)N[C@@H](CN)C(=O)N[C@@H](CC(C)C)C(=O)N2C[C@H](O)C[C@H]2C(=O)N[C@@H](Cc2c[nH]c3ccccc23)C(=O)N[C@@H](CO)C(=O)N[C@@H](Cc2cn(CC(=O)O)c3ccccc23)C(=O)N(C)[C@@H](CCCC)C(=O)N(C)[C@@H](CCCC)C(=O)N[C@@H](CCC(=O)O)C(=O)N1)C(N)=O", "note": "[INT 1400I, ClAc-Tyr-mAla-Asn-Pro-Dap-Leu-Hyp-Trp-Ser-[(S)-2-amino-3-(1-(carboxymethyl)-1H-indol-3-yl)propanoic acid]-mNle-mNle-E-Cys-Gly-[(S)-propargylglycine]] ({CH2CO}-Y[NMeA]NP[Dap]L[Hyp]WS[Trp(1-CH2COOH)][NMeNle][NMeNle]ECG[Pra]-NH2; thioether N-14)", "values": [
      {"measurement": "IC50", "setting": "value given as range class", "value": "10 to 99", "unit": "nM"}
    ]},
    {"compound": "CCCC[C@H]1C(=O)N(C)[C@@H](CCCC)C(=O)N[C@@H](CC(C)C)C(=O)N[C@H](C(=O)NCC(=O)N[C@@H](CC(=O)NCCCC(=O)NCC[C@H](NC(=O)CCCCCCCCCCCCCCCCC(=O)O)C(=O)O)C(=O)O)CSCC(=O)N[C@@H](Cc2ccc(O)cc2)C(=O)N2CCCC[C@H]2C(=O)N[C@@H](CC(N)=O)C(=O)N2CCC[C@H]2C(=O)N[C@@H](CN)C(=O)N[C@@H](CC(C)C)C(=O)N2C[C@H](O)C[C@H]2C(=O)N[C@@H](Cc2c[nH]c3ccccc23)C(=O)N[C@@H](CCN)C(=O)N[C@@H](Cc2cn(CC(=O)O)c3ccccc23)C(=O)N1C", "note": "[Example 13162] ({CH2CO}-Y[Pip]NP[Dap]L[Hyp]W[Dab][Trp(1-CH2COOH)][NMeNle][NMeNle]LCG[βAsp][GABA]-X9; thioether N-14)", "values": [
      {"measurement": "IC50", "setting": "value given as number", "value": 3.8, "unit": "nM"}
    ]},
    {"compound": "CCCC[C@H]1C(=O)N(C)[C@@H](CCCC)C(=O)N[C@@H](CC(C)C)C(=O)N[C@H](C(=O)NCC(=O)NCC(=O)NCC(=O)NCCCCCCCCCCC(=O)O)CSCC(=O)N[C@@H](Cc2ccc(O)cc2)C(=O)N(C)[C@@H](C)C(=O)N[C@@H](CC(=O)O)C(=O)N2CCC[C@H]2C(=O)N[C@@H](CN)C(=O)N[C@@H](CCC(=O)O)C(=O)N2C[C@H](O)C[C@H]2C(=O)N[C@@H](Cc2c[nH]c3ccccc23)C(=O)N[C@@H](CCN)C(=O)N[C@@H](Cc2cn(CC(=O)O)c3ccccc23)C(=O)N1C", "note": "[Example 11097] ({CH2CO}-Y[NMeA]DP[Dap]E[Hyp]W[Dab][Trp(1-CH2COOH)][NMeNle][NMeNle]LCGGG[Aun]-OH; thioether N-14)", "values": [
      {"measurement": "IC50", "setting": "value given as range class", "value": "10 to 99", "unit": "nM"}
    ]},
    {"compound": "CCCCCCCCCCCCCCCC(=O)NCCCC[C@H](NC(=O)[C@H](CC(=O)O)NC(=O)CNC(=O)CNC(=O)[C@@H]1CSCC(=O)N[C@@H](Cc2ccc(O)cc2)C(=O)N(C)[C@@H](C)C(=O)N[C@@H](CC(N)=O)C(=O)N2CCC[C@H]2C(=O)N[C@@H](CCN)C(=O)N[C@@H](CC(C)C)C(=O)N2C[C@H](O)C[C@H]2C(=O)N[C@@H](Cc2c[nH]c3ccccc23)C(=O)N[C@@H](CO)C(=O)N[C@@H](Cc2c[nH]c3ccccc23)C(=O)N(C)[C@@H](CCCC)C(=O)N(C)[C@@H](CCCC)C(=O)N[C@@H](CCCNC(=N)N)C(=O)N1)C(N)=O", "note": "[Example 11026] ({CH2CO}-Y[NMeA]NP[Dab]L[Hyp]WSW[NMeNle][NMeNle]RCGGDK(Palmitoyl)-NH2; thioether N-14)", "values": [
      {"measurement": "IC50", "setting": "value given as range class", "value": "100 to 1600", "unit": "nM"}
    ]}
  ]
}
